The source made the active and inactive calls. The calls are words filed in the database; no cut-off is given here.
tested on: PC-12; test: Induction of neurite outgrowth in rat PC-12 cells at 1 to 30 uM incubated for 48 hrs; format: functional, cell-based; conditions: dose 1-30 µM

Structure (SMILES)	Activity
Oc1ccc2c(c1)OCC(Cc1ccc(O)c(O)c1)C2 (racemic)	inactive
Oc1ccc(CC2COc3ccccc3C2)cc1 (stereo not drawn)	inactive
Oc1ccc(CC2COc3ccccc3C2)cc1O (stereo not drawn)	inactive
O=c1c(Cc2ccc(O)c(O)c2)coc2ccccc12	inactive

tested on: PC-12; test: Induction of neurite outgrowth in rat PC-12 cells assessed as cell elongation at 30 uM incubated for 48 hrs in presence of NGF; format: functional, cell-based; conditions: not given

Structure (SMILES)	Activity
Oc1ccc2c(c1)OCC(Cc1ccc(O)c(O)c1)C2 (racemic)	Active
Oc1ccc(CC2COc3ccccc3C2)cc1 (stereo not drawn)	Active
Oc1ccc(CC2COc3ccccc3C2)cc1O (stereo not drawn)	Active
O=c1c(Cc2ccc(O)c(O)c2)coc2ccccc12	Active

molecular target: Acetylcholinesterase (Homo sapiens) (UniProt P22303); test: Inhibition of AChE (unknown origin) at 1 to 25 uM; conditions: dose 1-25 µM
Sequence (P22303 whole entry): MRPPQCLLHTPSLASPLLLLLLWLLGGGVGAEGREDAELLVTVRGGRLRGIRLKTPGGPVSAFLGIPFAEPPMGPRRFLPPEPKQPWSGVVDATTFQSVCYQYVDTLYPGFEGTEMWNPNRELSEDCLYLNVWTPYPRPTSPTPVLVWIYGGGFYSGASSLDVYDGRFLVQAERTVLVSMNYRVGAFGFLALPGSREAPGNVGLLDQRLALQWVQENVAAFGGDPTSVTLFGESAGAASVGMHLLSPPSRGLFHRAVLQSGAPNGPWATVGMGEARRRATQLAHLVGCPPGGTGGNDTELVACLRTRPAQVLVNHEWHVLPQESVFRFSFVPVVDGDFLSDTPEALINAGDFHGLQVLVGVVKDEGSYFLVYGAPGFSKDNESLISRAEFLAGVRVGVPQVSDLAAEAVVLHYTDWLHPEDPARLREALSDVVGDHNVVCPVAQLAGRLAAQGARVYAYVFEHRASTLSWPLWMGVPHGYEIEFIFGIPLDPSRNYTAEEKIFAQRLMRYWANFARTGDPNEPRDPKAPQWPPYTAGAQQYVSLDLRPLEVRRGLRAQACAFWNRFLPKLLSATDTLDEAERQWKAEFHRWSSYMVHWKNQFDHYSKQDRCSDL

Structure (SMILES)	inhibition
Oc1ccc2c(c1)OCC(Cc1ccc(O)c(O)c1)C2 (racemic)	Active
Oc1ccc(CC2COc3ccccc3C2)cc1 (stereo not drawn)	inactive
CN(C)C(=O)Oc1cccc([N+](C)(C)C)c1	Active
O=C(O)/C=C/c1ccc(O)c(O)c1	Active
Oc1ccc(CC2COc3ccccc3C2)cc1O (stereo not drawn)	Active
O=c1c(Cc2ccc(O)c(O)c2)coc2ccccc12	Active

tested on: PC-12; test: Induction of neurite outgrowth in rat PC-12 cells at 1 to 30 uM incubated for 48 hrs in presence of NGF; format: functional, cell-based; conditions: dose 1-30 µM

Structure (SMILES)	Activity
Oc1ccc2c(c1)OCC(Cc1ccc(O)c(O)c1)C2 (racemic)	Active
Oc1ccc(CC2COc3ccccc3C2)cc1 (stereo not drawn)	Active
Oc1ccc(CC2COc3ccccc3C2)cc1O (stereo not drawn)	Active
O=c1c(Cc2ccc(O)c(O)c2)coc2ccccc12	Active

Reference: ChEMBL document CHEMBL4673275, “Synthesis and biological activity of (±)-7,3',4'-trihydroxyhomoisoflavan and its analogs” (Bioorg Med Chem Lett, 2021)
